From patent US20110020279A1 (priority 2010, published 2011)
“Also recorded” adds a separate entry of the source.

Legend:
activated microglia = details: cited from earlier work
rabies virus [1] = details: cited from earlier work
rabies virus [2] = details: cited from earlier work; remark: listed apart in the source
rabies virus [3] = details: rat, in vivo; cited from earlier work
[4] = in vivo; cited from earlier work
[5] = mouse, in vivo; cited from earlier work
[6] = human, in vivo
herpes simplex virus = details: cited from earlier work
[7] = system: vesicular stomatitis virus; details: cited from earlier work
poliovirus type 1 = details: cited from earlier work
HIV virus = details: cited from earlier work
rabies virus [8] = details: human, in vivo, cited from earlier work
rabies virus [9] = details: cited from earlier work; remark: listed apart in the source
[10] = in vivo, iv; cited from earlier work
rabies virus [11] = details: in vivo; cited from earlier work
[12] = system: LPS-activated macrophages; details: cited from earlier work
[13] = in vivo; cited from earlier work; remark: listed apart in the source
[14] = in vivo; cited from earlier work; remark: listed apart in the source
[15] = in vivo; cited from earlier work; remark: listed apart in the source
[16] = set-up: species or system humans; details: human, in vivo
[17] = in vivo
[18] = system: MCF-7 human breast cancer cells; details: cited from earlier work

## C[C@]12CC[C@@H]3c4ccc(O)cc4CC[C@H]3[C@@H]1C[C@@H](O)[C@@H]2O [Estriol]
Activated microglia
  NO and TNF-alpha production by activated microglia: inhibits

## C[C@]12N[C@H](Cc3ccccc31)c1ccccc12 [MK-801]
Rabies virus [1]
  rabies virus infection in primary neuron cultures: inhibited

## Oc1ccc(/C=C/c2cc(O)cc(O)c2)cc1 [Resveratol]
Activated microglia
  NO and TNF-alpha production by activated microglia: inhibits

## COc1cc2c(c(OC)c1OC)-c1ccc(OC)c(=O)cc1[C@@H](NC(C)=O)CC2 [colchicine]
Rabies virus [2]
  rabies virus transport in neurites: blocked
Rabies virus [3]
  day post-infection until which no fluorescent foci could be detected: 3 days

## C[C@]12CCC(=O)C=C1CC[C@@H]1[C@@H]2[C@@H](O)C[C@@]2(C)[C@H]1CC[C@]2(O)C(=O)CO [cortisol]
Activated microglia
  release of TNF-alpha from LPS-treated microglial cells: inhibits

## COc1cc(/C=C/C(=O)CC(=O)/C=C/c2ccc(O)c(OC)c2)ccc1O [curcumin]
Activated microglia
  mRNA and protein levels of inducible nitric oxide synthase (iNOS): suppresses

## S [hydrogen sulfide]
[4]
  borderline concentration for eye irritation: 10-20 ppm
  concentration at which olfactory nerve is paralyzed after a few inhalations: 100-150 ppm
  concentration causing immediate collapse with loss of breathing: over 1000 ppm
  concentration causing strong CNS stimulation, rapid breathing, loss of breathing: 530-1000 ppm
  concentration leading to eye damage: 50-100 ppm
  concentration leading to pulmonary edema with possibility of death: 320-530 ppm
  concentration with exposure limit of 8 hours per day: Less than 10 ppm
  lethal concentration for 50% of humans (LC50): 800 ppm
[5]
  blood pressure: did not significantly decrease
  health consequences afterwards: no negative health consequences

## CNC1(c2ccccc2Cl)CCCCC1=O (stereo not shown) [ketamine]
Rabies virus [1]
  rabies virus infection in primary neuron cultures: inhibited
  reduction in the levels of rabies virus mRNAs relative to untreated neurons: 5- to 11 fold
  viral nucleoprotein and glycoprotein syntheses: inhibited
[6]
  initial cardiovascular effects: tachycardia and elevated blood pressure
Herpes simplex virus
  replication of herpes simplex virus: doesn't affect replication
[7]
  replication of vesicular stomatitis virus: doesn't affect replication
Poliovirus type 1
  replication of poliovirus type 1: doesn't affect replication
HIV virus
  replication of HIV virus: doesn't affect replication
Rabies virus [8]
  outcome of rabies therapy with ketamine and induced coma: failed to save the patient's life
Rabies virus [9]
  ketamine therapy of rabies in experimental studies: poor and disappointing
[10]
  treatment of hiccup: effectively
Rabies virus [11]
  rabies virus infection/spread in rat brain: restricted viral spread; also recorded: reduced

## CC(=O)[C@H]1CC[C@H]2[C@@H]3CCC4=CC(=O)CC[C@]4(C)[C@H]3CC[C@]12C [progesterone]
Activated microglia
  NO and TNF-alpha production by activated microglia: inhibits

## CC(C)c1cccc(C(C)C)c1O [propofol]
[12]
  LPS-induced NO biosynthesis: significantly inhibited
  levels of LPS-enhanced TNF-alpha, IL-1 beta, and IL-6 proteins: significantly reduced
[13]
  time to waking when not administered continuously: 5 to 10 min

## NC(=O)c1ncn([C@@H]2O[C@H](CO)[C@@H](O)[C@H]2O)n1 [ribavirin]
Rabies virus [8]; iv
  outcome of antiviral therapy, intravenous: unsuccessful
  outcome of therapy, combined intravenous and intrathecal administration: unsuccessful

## CC[C@]1(O)C[C@@H]2CN(CCc3c([nH]c4ccccc34)[C@@](C(=O)OC)(c3cc4c(cc3OC)N(C)[C@H]3[C@@](O)(C(=O)OC)[C@H](OC(C)=O)[C@]5(CC)C=CCN6CC[C@]43[C@@H]65)C2)C1 [vinblastine]
Rabies virus [2]
  rabies virus transport in neurites: blocked

## NPH (isophane) insulin
[14]
  Effective duration of action: 10 to 16 h
  Maximum duration: 14 to 18 h
  Onset of Action: 2 to 4 h
  Peak Action: 6 to 10 h

## biopterin
[15]
  post recovery paresis symptoms: relieved

## cytochalasin
Rabies virus [2]
  rabies virus transport in neurites: blocked

## insulin
[16]
  memory, attention, functioning, mood: improves memory, attention, and functioning
[17]
  hypoglycemic effects: did not develop the hypoglycemic effects
[18]
  increase of the cytotoxic effect of methotrexate by insulin: up to 10,000 fold

## insulin aspart
[14]
  Effective duration of action: 3 to 4 h
  Maximum duration: 4 to 6 h
  Onset of Action: ¼-½
  Peak Action: ½-1¼

## insulin detemir
[14]
  Effective duration of action: 14 h
  Maximum duration: ~20 h
  Onset of Action: 3 to 4 h
  Peak Action: 6 to 8 h

## insulin glargine
[14]
  Effective duration of action: 18 to 20 h
  Maximum duration: 20 to 24 h
  Onset of Action: 3 to 4 h
  Peak Action: 8 to 16 h

## insulin glulisine
[14]
  Effective duration of action: 3 to 4 h
  Maximum duration: 4 to 6 h
  Onset of Action: ¼-½
  Peak Action: ½-1¼

## insulin lispro [IInsulin lispro]
[14]
  Effective duration of action: 3 to 4 h
  Maximum duration: 4 to 6 h
  Onset of Action: ¼-½
  Peak Action: ½-1¼

## interferon-Alfa
Rabies virus [8]; iv
  outcome of therapy, combined intravenous and intrathecal administration: unsuccessful

## regular (soluble) insulin
[14]
  Effective duration of action: 3 to 6 h
  Maximum duration: 6 to 8 h
  Onset of Action: ½-1
  Peak Action: 2 to 3 h
